Reference: paper PMC6661766, “Antimicrobial, antioxidant and cytotoxic evaluation of diazenyl chalcones along with insights to mechanism of interaction by molecular docking studies” (BMC Chemistry, 2019)
≈ marks a conversion by molar mass, not a printed value. Where “and” joins values, the source holds several entries; their conditions need not be identical. Equal entries are not always repeated.

Key:
[1] = tested on: A549 human lung cancer cell line; assay: MTT cytotoxicity assay, A549; assay type: cell-based; details: for IC50: Homo sapiens, A549, MTT, 48 h
Method: (§1) The cell lines employed in the investigation were purchased from the National Centre for Cell Sciences (NCCS), Pune, India. The cell lines were cultured in DMEM fortified with 10% FBS, L-glutamine, sodium bicarbonate, and solution of antibiotics (streptomycin 100 μg ml^−1 + penicillin-100 U ml^−1). The culture of cell lines was stored under 5% CO2 incubation at 37 °C.
(§2) The compounds showing maximum activity (antimicrobial and antioxidant potential) were screened for cytotoxicity against A549 and HEK cell lines using MTT assay. Initially, 96-well microculture plate was seeded with 1 × 10^4 cells in 100 µl/well DMEM/MEM, supplemented with 10% FBS followed by incubation at a temperature of 37 °C for a period of 24 h under 5% CO2 atmosphere. After that, the test compounds and camptothecin were added to the cells to achieve a concentration of 10, 25, 50 and 100 µg. MTT reagent (10 µl) of concentration of 5 mg ml^−1 added to all the wells after the duration of 48 h. The plate was incubated further for 4 h followed by careful removal of supernatant from each well. To dissolve the formazan crystals, 100 µl of DMSO was added, and the ELISA reader was used to check the absorbance at 570 nm wavelength. In order to calculate the IC50 concentration, the following equation, i.e. A = Bx + C, was used. In this case, A = 50, while the values B and C values were obtained from the survival curve plot. This study was carried out in duplicate.

B. subtilis = assay: Antimicrobial serial tube dilution, MIC and MBC; assay type: cell-based, Bacillus subtilis MTCC 2063; details: Bacillus subtilis; for MIC: 24 h, read-out: B. subtilis MIC; for MBC: read-out: B. subtilis MBC
Method: (§3) The synthesized diazenyl chalcones (C18 to C27) and controls (dyes A and E, and chalcone) were assessed for their antimicrobial activity by estimation of MIC and MBC/MFC values. […] The stock solutions of the test compounds and standard drugs having a concentration of 1000 µg ml^−1 were prepared by dissolving the used compounds in DMSO. The nutrient broth/Sabouraud dextrose broth was used for the serial dilution of the test compounds and referenced drugs for bacterial and fungal cultures, respectively. […] The size of the final inoculum in each test tube was taken as 5 × 10^5 CFU ml^−1. The incubation of the test and standard compounds of varying concentrations was done for 24 h at 37 ± 2 °C (bacterial culture) and for 48 h at 37 ± 2 °C (C. albicans) and for 7 d at 25 ± 2 °C (A. fumigatus). The diazenyl chalcones (C18–C27), were further evaluated for their bactericidal/fungicidal activity by estimation of MBC/MFC values. […] For proper mixing of culture media, the plates were shaken gently followed by incubation at the predefined temperature and time as stated earlier, followed by the visual inspection of the plates for signs of microbial growth.

[2] = tested on: HEK human embryonic kidney cells; assay: MTT cytotoxicity assay, HEK; assay type: cell-based; details: 48 h
Method: as §1, §2

A. fumigatus = assay: Antimicrobial serial tube dilution, MIC and MFC; assay type: cell-based, Aspergillus fumigatus MTCC 2584; details: Aspergillus fumigatus; for MIC: 168 h, read-out: A. fumigatus MIC; for MFC: read-out: A. fumigatus MFC
Method: as §3

S. aureus = assay: Antimicrobial serial tube dilution, MIC and MBC; assay type: cell-based, Staphylococcus aureus MTCC 2901; details: Staphylococcus aureus; for MIC: 24 h, read-out: S. aureus MIC; for MBC: read-out: S. aureus MBC
Method: as §3

C. albicans = assay: Antimicrobial serial tube dilution, MIC and MFC; assay type: cell-based, Candida albicans MTCC 227; details: Candida albicans; for MIC: 48 h, read-out: C. albicans MIC; for MFC: read-out: C. albicans MFC
Method: as §3

[3] = DPPH scavenging antioxidant assay; details: for log IC50 DPPH: Fig. 1
Method: The derivatives (C18–C27) were assessed for their antioxidant potential in the presence of the stable free radical DPPH using ascorbic acid as the standard compound [36, 37]. […] The total volume of 200 µl was used in each well for each concentration of the test and standard drug containing 0.004 µg DPPH. The assay was performed in triplicate at all concentrations of each sample and standard compound. DPPH solutions in methanol at the same concentration without test drugs were used as the control. Each concentration of the sample and standard has a different blank. To minimize evaporation, the plate was covered with the lid and wrapped in aluminium foil and kept in the dark place in order to protect the DPPH radical from degradation by light and left for 30 min. After 30 min of incubation, the plate was kept in ELISA reader to measure the absorbance values at 517 nm. The experiment was performed in triplicate. The antioxidant activity of each sample was then calculated as per cent inhibition of DPPH according to the following equation: %decolourationofDPPH=ControlAbs-SampleAbs×100/ControlAbs

E. coli = assay: Antimicrobial serial tube dilution, MIC and MBC; assay type: cell-based, Escherichia coli MTCC 1652; details: for E. coli MIC: 24 h at 37 ± 2 °C; for MIC / MBC: Escherichia coli; for MIC: 24 h, read-out: E. coli MIC, 24 h at 37 ± 2 °C; for MBC: read-out: E. coli MBC
Method: as §3

B. cereus = assay: Antimicrobial serial tube dilution, MIC and MBC; assay type: cell-based, Bacillus cereus MTCC 1305; details: Bacillus cereus; for MIC: 24 h, read-out: B. cereus MIC; for MBC: read-out: B. cereus MBC
Method: as §3

S. typhi = assay: Antimicrobial serial tube dilution, MIC and MBC; assay type: cell-based, Salmonella typhi MTCC 3216; details: Salmonella enterica, TYPHI; for MIC: 24 h, read-out: S. typhi MIC; for MBC: read-out: S. typhi MBC
Method: as §3

SMILES | MIC (B. subtilis) [µg/mL] | MBC (B. subtilis) [µg/mL] | MIC (A. fumigatus) [µg/mL] | MFC (A. fumigatus) [µg/mL] | MIC (S. aureus) [µg/mL] | MBC (S. aureus) [µg/mL] | MIC (C. albicans) [µg/mL] | MFC (C. albicans) [µg/mL] | IC50 DPPH [3] | % inhibition of DPPH ([3]; 1.56 µg ml^−1) [%] | % inhibition of DPPH ([3]; 3.12 µg ml^−1) [%] | % inhibition of DPPH ([3]; 6.25 µg ml^−1) [%] | % inhibition of DPPH ([3]; 12.5 µg ml^−1) [%] | % inhibition of DPPH ([3]; 25 µg ml^−1) [%] | % inhibition of DPPH ([3]; 50 µg ml^−1) [%] | % inhibition of DPPH ([3]; 100 µg ml^−1) [%] | MIC (E. coli) [µg/mL] | MBC (E. coli) [µg/mL] | melting point [°C] | MIC (B. cereus) [µg/mL] | other results
O=Cc1ccc(/C=C\C(=O)c2ccc(N=Nc3c(O)cccc3O)cc2)cc1 [Compound C-23, 4-((1Z)-3-(4-((2,6-Dihydroxyphenyl)diazenyl)phenyl)-3-oxoprop-1-en-1-yl)benzaldehyde] | 62.5 (≈ 168 µM) | 62.5 (≈ 168 µM) | 62.5 (≈ 168 µM) | 125 (≈ 336 µM) | 125 (≈ 336 µM) | 125 (≈ 336 µM) | 125 (≈ 336 µM) | 125 (≈ 336 µM) | 17.82 µg/mL (≈ 47.9 µM) | 19.03 | 25.53 | 35.86 | 50.45 | 70.53 | 83.17 | 95.68 | 7.81 to 15.6 (≈ 21 to 41.9 µM) | 15.6 (≈ 41.9 µM) | 182 to 184 | 62.5 (≈ 168 µM) | IC50 [1]: 171 ± 2.46 µg/mL (≈ 460 µM); IC50 [2]: 190.1 ± 1.56 µg/mL (≈ 511 µM); log IC50 DPPH [3]: 1.251; E. coli MIC (E. coli): 15.62 µg/mL; MBC (B. cereus): 62.5 µg/mL (≈ 168 µM); MIC (S. typhi): 31.2 µg/mL (≈ 83.9 µM); MBC (S. typhi): 62.5 µg/mL (≈ 168 µM)
O=Cc1ccc(/C=C\C(=O)c2cccc(N=Nc3cccc(Cl)c3Cl)c2O)cc1 [Compound C-25, 4-((1Z)-3-(3-((2,3-Dichlorophenyl)diazenyl)-2-hydroxyphenyl)-3-oxoprop-1-en-1-yl)benzaldehyde] | 15.6 (≈ 36.7 µM) | 62.5 (≈ 147 µM) | 62.5 (≈ 147 µM) | 62.5 (≈ 147 µM) | 62.5 (≈ 147 µM) | 62.5 (≈ 147 µM) | 31.2 (≈ 73.5 µM) | 62.5 (≈ 147 µM) | > 100 µg/mL | 9.71 | 10.38 | 11.36 | 13.56 | 14.91 | 15.67 | 20.34 | 62.5 (≈ 147 µM) | 125 (≈ 294 µM) | 96 to 98 | 125 (≈ 294 µM) | Morphological changes in A549 cell line ([1]; C-25 at 50 and 25 µg ml^−1, Fig. 2): reduced the number and clumping of A549 cells to a significant extent; IC50 [1]: 18 ± 1.34 µg/mL (≈ 42.3 µM); Cytotoxicity against A549 cell line in words ([1]; compared with camptothecin): comparable cytotoxicity to camptothecin; IC50 [2]: 270 ± 2.82 µg/mL (≈ 635 µM); MBC (B. cereus): 125 µg/mL (≈ 294 µM); MIC (S. typhi): 125 µg/mL (≈ 294 µM); MBC (S. typhi): 125 µg/mL (≈ 294 µM)
O=C(/C=C\c1ccc(Cl)cc1Cl)c1cccc(N=Nc2cccc(Cl)c2Cl)c1O [Compound C-19, (2Z)-3-(2,4-Dichlorophenyl)-1-(3-((2,3-dichlorophenyl)diazenyl)-2-hydroxyphenyl)prop-2-en-1-one] | 15.6 (≈ 33.5 µM) | 62.5 (≈ 134 µM) | 125 (≈ 268 µM) | 250 (≈ 536 µM) | 125 (≈ 268 µM) | 125 (≈ 268 µM) | 125 (≈ 268 µM) | 125 (≈ 268 µM) | > 100 µg/mL | 6.64 | 7.71 | 9.39 | 10.87 | 12.99 | 15.22 | 24.49 | 500 (≈ 1070 µM) | 500 (≈ 1070 µM) | 112 to 114 | 500 (≈ 1070 µM) | IC50 [1]: 140.2 ± 1.11 µg/mL (≈ 301 µM); IC50 [2]: 221 ± 3.23 µg/mL (≈ 474 µM); MBC (B. cereus): 500 µg/mL (≈ 1070 µM); MIC (S. typhi): 125 µg/mL (≈ 268 µM); MBC (S. typhi): 125 µg/mL (≈ 268 µM)
CC(=O)c1ccc(O)c(N=Nc2cccc(Cl)c2Cl)c1 [Dye A, 1-(3-((2,3-Dichlorophenyl)diazenyl)-4-hydroxyphenyl)ethanone] | 125 (≈ 404 µM) | 125 (≈ 404 µM) | 125 (≈ 404 µM) | 125 (≈ 404 µM) | 125 (≈ 404 µM) | 125 (≈ 404 µM) | 62.5 (≈ 202 µM) | 62.5 (≈ 202 µM) | > 100 µg/mL | 4.65 | 9.23 | 11.97 | 17.67 | 22.18 | 29.87 | 35.45 | 15.6 (≈ 50.5 µM) | 31.2 (≈ 101 µM) | 140 to 142 | 31.2 (≈ 101 µM) | MBC (B. cereus): 31.2 µg/mL (≈ 101 µM); MIC (S. typhi): 62.5 µg/mL (≈ 202 µM); MBC (S. typhi): 62.5 µg/mL (≈ 202 µM)
CC(=O)c1ccc(N=Nc2c(O)cccc2O)cc1 [Dye E, 1-(4-((2,6-Dihydroxyphenyl)diazenyl)phenyl)ethanone] | 62.5 (≈ 244 µM) | 125 (≈ 488 µM) | 125 (≈ 488 µM) | 125 (≈ 488 µM) | 31.2 (≈ 122 µM) | 62.5 (≈ 244 µM) | 125 (≈ 488 µM) | 125 (≈ 488 µM) | 69.40 µg/mL (≈ 271 µM) | 7.89 | 12.68 | 19.80 | 26.18 | 34.89 | 47.56 | 56.78 | 31.2 (≈ 122 µM) | 31.2 (≈ 122 µM) | 240 to 242 | 62.5 (≈ 244 µM) | MBC (B. cereus): 62.5 µg/mL (≈ 244 µM); MIC (S. typhi): 125 µg/mL (≈ 488 µM); MBC (S. typhi): 125 µg/mL (≈ 488 µM)
COc1ccccc1/C=C\C(=O)c1ccc(N=Nc2c(O)cccc2O)cc1 [Compound C-27, (2Z)-1-(4-((2,6-Dihydroxyphenyl)diazenyl)phenyl)-3-(2-methoxyphenyl)prop-2-en-1-one] | 15.6 (≈ 41.7 µM) | 31.2 (≈ 83.5 µM) | 125 (≈ 334 µM) | 125 (≈ 334 µM) | 62.5 (≈ 167 µM) | 62.5 (≈ 167 µM) | 62.5 (≈ 167 µM) | 62.5 (≈ 167 µM) | 7.112 µg/mL and 7.12 µg/mL | 26.13 | 34.18 | 54.67 | 82.21 | 93.45 | 95.71 | 96.62 | 7.81 to 15.6 (≈ 20.9 to 41.7 µM) | 15.6 (≈ 41.7 µM) | 320 to 322 | 125 (≈ 334 µM) | IC50 [1]: 124 ± 2.56 µg/mL (≈ 330 µM); IC50 [2]: 330.6 ± 2.9 µg/mL (≈ 883 µM); log IC50 DPPH [3]: 0.8520; E. coli MIC (E. coli): 7.81 µg/mL; MBC (B. cereus): 125 µg/mL (≈ 334 µM); MIC (S. typhi): 62.5 µg/mL (≈ 167 µM); MBC (S. typhi): 62.5 µg/mL (≈ 167 µM)
